Source: patent US11654169B2, “Methods for protecting skin and/or promoting wound healing” (SINPHAR PHARMACEUTICAL CO., LTD., priority 2016, dated 2023)

Tests used:
Format in all cases: cell-based
[1] = system: normal primary human skin fibroblastic cells; test: Content of hyaluronic acid in cell medium of fibroblasts (Western blot and ELISA), relative to control; conditions: 48 hours; for relative content of hyaluronic acid in the medium (extracellular content of hyaluronic acid): control group = 100%; for contents of hyaluronic acid as compared to the control group (in words) / contents of hyaluronic acid, ingredients singled out as stronger (in words): treated cells vs control group; for contents of hyaluronic acid, ingredients singled out as stronger (in words): compared with the other active ingredients
Protocol: (§1) The normal primary human skin fibroblastic cells (purchased from ATCC) were cultivated in a Fibroblast Growth Medium. The cells thus provided were used in the following experiments. […]
(§2) Thereafter, the cell medium of each group was collected and concentrated. Then, the intracellular content of collagen, the content of collagen in cell medium (i.e., extracellular content of collagen) and the content of hyaluronic acid in cell medium were measured and analyzed by Western blot and enzyme-linked immunosorbent assay (ELISA).
(§3) The normal primary human skin fibroblastic cells provided by [Preparation Example C] were divided into 37 groups and were respectively cultivated with the following medium for 48 hours: • 1. Group 1: a Fibroblast Growth Medium • 2. Group 2-1 to 2-3: Fibroblast Growth Media containing the pachymic acid (PA) provided by [Preparation Example B] at a concentration of 0.01, 0.1 and 1 μM, respectively; • 3. Group 3-1 to 3-3: Fibroblast Growth Media containing the dehydropachymic acid (DPA) provided by [Preparation Example B] at a concentration of 0.01, 0.1 and 1 μM, respectively; • 4. Group 4-1 to 4-3: Fibroblast Growth Media containing the tumulosic acid (TA) provided by [Preparation Example B] at a concentration of 0.01, 0.1 and 1 μM, respectively; • 5. Group 5-1 to 5-3: Fibroblast Growth Media containing the dehydrotumulosic acid (DTA) provided by [Preparation Example B] at a concentration of 0.01, 0.1 and 1 μM, respectively; • 6. Group 6-1 to 6-3: Fibroblast Growth Media containing the polyporenic acid C (PAC) provided by [Preparation Example B] at a concentration of 0.01, 0.1 and 1 μM, respectively; • 7. Group 7-1 to 7-3: Fibroblast Growth Media containing the 3-epi-dehydrotumulosic acid (EDTA) provided by [Preparation Example B] at a concentration of 0.01, 0.1 and 1 μM, respectively; • 8. Group 8-1 to 8-3: Fibroblast Growth Media containing the dehydrotrametenolic acid (DTTA) provided by [Preparation Example B] at a concentration of 0.01, 0.1 and 1 μM, respectively; • 9. Group 9-1 to 9-3: Fibroblast Growth Media containing the trametenolic acid (TTA) provided by [Preparation Example B] at a concentration of 0.01, 0.1 and 1 μM, respectively; • 10. Group 10-1 to 10-3: Fibroblast Growth Media containing the poricoic acid A (PAA) provided by [Preparation Example B] at a concentration of 0.01, 0.1 and 1 μM, respectively; • 11. Group 11-1 to 11-3: Fibroblast Growth Media containing the dehydroeburicoic acid (DEA) provided by [Preparation Example B] at a concentration of 0.01, 0.1 and 1 μM, respectively; • 12. Group 12-1 to 12-3: Fibroblast Growth Media containing the poricoic acid B (PAB) provided by [Preparation Example B] at a concentration of 0.01, 0.1 and 1 μM, respectively; • 13. Group 13-1 to 13-3: Fibroblast Growth Media containing the eburicoic acid (EA) provided by [Preparation Example B] at a concentration of 0.01, 0.1 and 1 μM, respectively.
The content of hyaluronic acid in the medium of each group (i.e., extracellular content of hyaluronic acid) was provided.

[2] = system: normal primary human skin fibroblastic cells; test: Intracellular content of collagen in fibroblasts (Western blot and ELISA), relative to control; conditions: 48 hours; for relative intracellular content of collagen: control group = 100%; for intracellular contents of collagen as compared to the control group (in words): treated cells vs control group
Protocol: as §1, §3
Thereafter, the cell medium of each group was collected and concentrated. Then, the intracellular content of collagen was measured and analyzed by Western blot and enzyme-linked immunosorbent assay (ELISA).

[3] = system: normal primary human skin fibroblastic cells; test: Content of collagen in cell medium (extracellular collagen) of fibroblasts (Western blot and ELISA), relative to control; conditions: 48 hours; for relative content of collagen in the medium (extracellular content of collagen): control group = 100%; for extracellular contents of collagen (collagen in cell medium) as compared to the control group (in words): treated cells vs control group
Protocol: The normal primary human skin fibroblastic cells (purchased from ATCC) were cultivated in a Fibroblast Growth Medium. The cells thus provided were used in the following experiments.
The normal primary human skin fibroblastic cells provided by [Preparation Example C] were divided into 4 groups and were respectively cultivated with the following medium for 48 hours: • 1. Group I: a Fibroblast Growth Medium; • 2.
as §2, §3
The content of collagen in the medium of each group (i.e., extracellular content of collagen) was provided.

SMILES | relative content of hyaluronic acid in the medium (extracellular content of hyaluronic acid) ([1]; 0.01 μM) [%] | relative content of hyaluronic acid in the medium (extracellular content of hyaluronic acid) ([1]; 0.1 μM) [%] | relative content of hyaluronic acid in the medium (extracellular content of hyaluronic acid) ([1]; 1 μM) [%] | relative intracellular content of collagen ([2]; 0.01 μM) [%] | relative intracellular content of collagen ([2]; 0.1 μM) [%] | relative intracellular content of collagen ([2]; 1 μM) [%] | intracellular contents of collagen as compared to the control group (in words) [2] | relative content of collagen in the medium (extracellular content of collagen) ([3]; 0.01 μM) [%] | relative content of collagen in the medium (extracellular content of collagen) ([3]; 0.1 μM) [%] | relative content of collagen in the medium (extracellular content of collagen) ([3]; 1 μM) [%] | extracellular contents of collagen (collagen in cell medium) as compared to the control group (in words) [3] | contents of hyaluronic acid as compared to the control group (in words) [1] | contents of hyaluronic acid, ingredients singled out as stronger (in words) [1]
CC(C)=CCC[C@@H](C(=O)O)[C@H]1CC[C@@]2(C)C3=CC[C@H]4C(C)(C)[C@@H](O)CC[C@]4(C)C3=CC[C@]12C [Dehydrotrametenolic acid (DTTA), dehydrotrametenolic acid] | 99 | 87 | 108 | 190 | 174 | 118 | significantly enhanced | 117 | 158 | 131 | significantly enhanced | – | –
C=C(CC[C@@H](C(=O)O)[C@H]1[C@H](O)C[C@@]2(C)C3=C(CC[C@]12C)[C@@]1(C)CC[C@H](O)C(C)(C)[C@@H]1CC3)C(C)C [Tumulosic acid (TA), tumulosic acid] | 100 | 123 | 124 | 148 | 127 | 147 | – | 140 | 136 | 141 | – | – | –
C=C(CCC(C(=O)O)[C@H]1[C@H](O)C[C@@]2(C)C3=CC[C@H]4C(C)(C)[C@@H](OC(C)=O)CC[C@]4(C)C3=CC[C@]12C)C(C)C (stereo partly shown) [Dehydropachymic acid (DPA), dehydropachymic acid] | 111 | 131 | 152 | 154 | 188 | 122 | significantly enhanced | 124 | 122 | 116 | significantly enhanced | significantly enhanced | enhanced more significantly
C=C(CC[C@@H](C(=O)O)[C@H]1[C@H](O)C[C@@]2(C)C3=CC[C@H]4C(C)(C)[C@H](O)CC[C@]4(C)C3=CC[C@]12C)C(C)C [3-epi-dehydrotumulosic acid (EDTA), 3-epi-dehydrotumulosic acid] | 105 | 122 | 140 | 87 | 100 | 80 | – | 98 | 104 | 111 | significantly enhanced | significantly enhanced | enhanced more significantly
C=C(CC[C@@H](C(=O)O)[C@H]1[C@H](O)C[C@@]2(C)C3=C(CC[C@]12C)[C@@]1(C)CC[C@H](OC(C)=O)C(C)(C)[C@@H]1CC3)C(C)C [Pachymic acid (PA), pachymic acid] | 98 | 132 | 140 | 172 | 235 | 211 | – | 117 | 116 | 106 | – | – | –
CC(C)=CCC[C@@H](C(=O)O)[C@H]1CC[C@@]2(C)C3=C(CC[C@]12C)[C@@]1(C)CC[C@H](O)C(C)(C)[C@@H]1CC3 [Trametenolic acid (TTA), trametenolic acid] | 83 | 108 | 125 | 95 | 79 | 79 | – | 141 | 149 | 142 | significantly enhanced | significantly enhanced | –
C=C(CC[C@@H](C(=O)O)[C@H]1[C@H](O)C[C@@]2(C)C3=CC[C@@H](C(=C)C)[C@](C)(CCC(=O)O)C3=CC[C@]12C)C(C)C [Poricoic acid A (PAA), poricoic acid A] | 108 | 106 | 99 | 78 | 104 | 115 | significantly enhanced | 111 | 111 | 91 | significantly enhanced | significantly enhanced | –
C=C(CC[C@@H](C(=O)O)[C@H]1CC[C@@]2(C)C3=C(CC[C@]12C)[C@@]1(C)CC[C@H](O)C(C)(C)[C@@H]1CC3)C(C)C [Eburicoic acid (EA), eburicoic acid] | 94 | 107 | 120 | 102 | 97 | 95 | – | 108 | 106 | 88 | significantly enhanced | significantly enhanced | –
